Laboratory results published in patent publication US20260306460A1, “COMPOSITION FOR REMOVING AND INHIBITING SENESCENT CELLS, AND USES THEREOF” (LIFECEUTIX CO., LTD., priority 2023, published 2026).

Tests used:
Format in all cases: in vivo, mouse
[1] = tested on: naturally aged C57BL6J mice; test: Osteoclast marker mRNA (Ctsk, Ocstamp, Oscar, Rank, Trap) in femur of naturally aged mice, Example 21-14, Table 29; conditions: left femur, untreated aged = 100%
Protocol: (§1) 22-month-old female C57BL6J mice (KRIBB Laboratory Animal Resource Center) were acclimated to the experimental environment for one week, after which the aged mice were randomly assigned to experimental and control groups. Eight-week-old, non-aged mice served as controls. LX-403 was mixed in a 10% ethanol solution of PEG400 and administered orally at a concentration of 25 mg/kg daily for 21 days, or administered to the skin, joints, or eyes at a concentration of 1 μM. LX-1801 was mixed in distilled water with 4% DMSO, 30% PEG300, and 5% Tween80 and administered to the skin, joints, or eyes at a concentration of 0.4 μM daily for 21 days. LX-2001 was mixed in PBS and administered to the skin, joints, or eyes at a concentration of […] daily for 21 days. LX-2002 was mixed in distilled water with 4% DMSO, 30% PEG300, and 5% Tween80 and administered to the skin, joints, or eyes at a concentration of 2 μM daily for 21 days. […] LX-2005 was mixed in distilled water with 4% DMSO, 30% PEG300, and 5% Tween80 and administered to the skin, joints, or eyes at a concentration of 90 μM daily for 21 days. LX-2007 was mixed in distilled water with 4% DMSO, 30% PEG300, and 5% Tween80 and administered to the skin, joints, or eyes at a concentration of 90 μM daily for 21 days. […] LX-3002 was mixed in distilled water with 4% DMSO, 30% PEG300, and 5% Tween80 and administered orally at a concentration of 10 mg/kg daily for 21 days. […] LX-5411 was mixed in 5% PBS and administered orally at a concentration of 10 mg/kg daily for 21 days or administered to the skin, joints, or eyes at a concentration of 3 μM. LX-5701 was mixed in PBS and administered orally at a concentration of 360 mg/kg daily for 21 days. LX-6807 was mixed in saline and administered intraperitoneally at a concentration of 1 mg/kg daily for 21 days. LX-2101 or LX-2102 was mixed in PBS solution with 5% DMSO and administered intraperitoneally at a concentration of 20 mg/kg or 10 mg/kg, respectively, daily for 21 days. The control group received only the solution in the same volume. After the end of drug administration, the methods described in each example below were performed.
Senile osteoporosis is a metabolic bone disease characterized by decreased bone density and a high fracture risk. It occurs in both men and women with aging. The accumulation of senescent cells is known to contribute to osteoporosis by increasing bone resorption by osteoclasts and decreasing bone formation by osteoblasts through the senescence-associated secretory factor (SASP). RNA was extracted from the left femur of mice as described in Example 7-2 WO2023-085787 A1, and qRT-PCR was performed using the synthesized cDNA. […] The amount of each factor after aging was induced was calculated as 100% and compared with the amount of each factor after treatment with the test compound.

[2] = tested on: carbon tetrachloride-induced liver fibrosis C57BL6J mice; test: Carbon tetrachloride liver disease in mice (p16, IL6, Col1a1 mRNA, AST), Example 26, Table 50; conditions: daily for 21 days, untreated 100%; for Col1a1 mRNA / IL6 mRNA / p16 mRNA: liver
Protocol: Eight-week-old male C57BL6J mice (KRIBB Laboratory Animal Resource Center) were acclimated to the experimental environment for one week. Carbon tetrachloride (CCL4) was administered intraperitoneally at a concentration of 0.5 μl/g, and aging was induced for at least six weeks. The aging-induced mice were randomly assigned to experimental and control groups. […] The control group received only the solution in the same volume. After the drug administration was terminated, mice were sacrificed, and RNA was extracted from the liver in the same manner as in Example 7-2 of WO2023-085787 A1, and qRT-PCR was performed using the synthesized cDNA. […] The mRNA and AST amounts after aging was induced were calculated as 100% and compared with the mRNA amount of p16 after treatment with the test compound.

[3] = tested on: obesity-induced aged C57BL6J mice; test: Fatty liver (Oil Red O, AST, ALT) in obesity-aged mice, Example 23-5, Table 45; conditions: daily for 21 days, untreated 100%; for ALT / AST: serum; for Oil Red O: staining area, liver
Protocol: After acclimation to the experimental environment for one week, the mice were randomly assigned to experimental and control groups. […] The control group received only the solution in the same volume. After the end of drug administration, the methods described in each example below were performed.

[4] = tested on: naturally aged C57BL6J mice; test: SA-β-gal staining in organs of naturally aged mice, Example 21-3, Table 19; conditions: staining area, untreated aged = 100
Protocol: as §1
Mice were sacrificed, tissue sections were prepared from each organ, and stained for the senescence-associated marker (SA-β-gal) using the same method as in Example 7-3 of WO2023-085787 A1.

Row | Compound | Ctsk mRNA (%) [1] | Ocstamp mRNA (%) [1] | Oscar mRNA (%) [1] | Rank mRNA (%) [1] | Trap mRNA (%) [1] | Col1a1 mRNA [2] | IL6 mRNA [2] | p16 mRNA [2] | Serum AST [2] | ALT [3] | AST [3] | Oil Red O [3] | SA-β-gal (%), Kidney [4] | SA-β-gal (%), Liver [4] | SA-β-gal (%), Lung [4] | SA-β-gal (%), Skin [4] | SA-β-gal (%), eWAT [4]
1 | Cc1cccc([C@H](C)c2cnc[nH]2)c1C [LX-6807, Dexmedetomidine] | 42 (±2.7) % | 53 (±5.1) % | 37 (±2.0) % | 57 (±3.9) % | 48 (±2.1) % | 51 (±3.1) % | 58 (±2.6) % | 67 (±3.0) % | 75 (±1.4) % | 70 (±6.4) % | 66 (±4.4) % | 53 (±3.9) % | – | – | – | – | –
2 | Tocofersolan [LX-3001] | 67 (±7.2) % | 75 (±3.3) % | 61 (±4.7) % | 56 (±6.3) % | 78 (±6.8) % | 71 (±2.4) % | 65 (±3.4) % | 76 (±3.7) % | 82 (±4.5) % | 71 (±1.3) % | – | 83 (±4.0) % | – | – | – | – | –
3 | CCCC\C=C/C=C/C=C\CCCCCCCC(=O)O [LX-2707, Punicic acid] | 64 (±8.6) % | 73 (±3.2) % | 54 (±3.4) % | 67 (±3.4) % | 51 (±5.2) % | 76 (±2.5) % | 56 (±2.1) % | 68 (±1.6) % | 79 (±5.6) % | 64 (±3.1) % | 75 (±2.1) % | 67 (±1.7) % | – | – | – | – | –
4 | CC1(C)CC[C@]2(NC(=O)C(C)(F)F)CC[C@]3(C)[C@H](C(=O)C=C4[C@@]5(C)C=C(C#N)C(=O)C(C)(C)[C@@H]5CC[C@]43C)[C@@H]2C1 [LX-2101, Omaveloxolone] | 61 (±12.1) % | 69 (±10.3) % | 79 (±5.6) % | 75 (±2.7) % | 50 (±14.2) % | – | – | – | – | – | – | – | 51 (±12.5) % | 71 (±5.5) % | 72 (±8.8) % | 75 (±11.8) % | 32 (±16.2) %
5 | COC(=O)[C@]12CCC(C)(C)C[C@H]1[C@H]1C(=O)C=C3[C@@]4(C)C=C(C#N)C(=O)C(C)(C)[C@@H]4CC[C@@]3(C)[C@]1(C)CC2 [LX-2102, Bardoxolone methyl] | – | – | – | – | – | – | – | – | – | – | – | – | 62 (±8.6) % | 68 (±6.8) % | 59 (±14.6) % | 77 (±5.4) % | 49 (±9.7) %
6 | O=C1C2CCN(CC2)C1CNC(=O)C(F)(F)F (stereo not shown) [LX-5701] | 57 (±13.0) % | 70 (±6.7) % | 72 (±7.2) % | 68 (±10.4) % | 63 (±18.4) % | 62 (±6.7) % | 53 (±17.6) % | 70 (±6.2) % | 77 (±8.0) % | 64 (±7.9) % | 69 (±8.8) % | 55 (±17.2) % | 77 (±8.1) % | 65 (±4.8) % | 62 (±9.6) % | 76 (±6.9) % | 48 (±3.9) %
